Test results: patent US5516647A, “Compounds useful as alkaline phosphatase inhibitors and therapeutic agents” (Abbott Laboratories, priority 1993, dated 1996)
Entries after “also recorded” stand apart in the source; their conditions may differ. Read-outs that look alike come from different tables or passages of the source. One block for each compound: values may come before it.

Key:
[1] = target: T1, calf intestinal AP (Bos taurus, UniProt P19111); experiment: Inhibition of calf intestinal AP; format: biochemical; details: for inhibition of calf intestinal AP versus E. coli AP: compared with E. coli AP; for inhibition of calf intestinal AP versus L-phenylalanine and levamisole: compared with L-phenylalanine and levamisole; for inhibition of calf intestinal AP versus human intestinal AP: compared with human intestinal AP
[2] = target: T2, human intestinal AP (Homo sapiens, UniProt P09923); experiment: Inhibition of human intestinal AP isoenzyme (p-nitrophenylphosphate hydrolysis); format: biochemical; details: for effectiveness against intestinal isoenzymes / order of effectiveness, intestinal isoenzymes: FIG. 6; for inhibition of the intestinal isoenzymes: FIG. 7, at the concentration compared with E. coli AP; for times as potent/effective as L-phenylalanine, intestinal isoenzymes: ratio to L-phenylalanine; for times as potent/effective as levamisole, intestinal isoenzymes: ratio to levamisole
T2 construct: purchased Aalto Scientific, Ltd., Vista, Calif
T2 sequence (P09923 20-503 limits assumed): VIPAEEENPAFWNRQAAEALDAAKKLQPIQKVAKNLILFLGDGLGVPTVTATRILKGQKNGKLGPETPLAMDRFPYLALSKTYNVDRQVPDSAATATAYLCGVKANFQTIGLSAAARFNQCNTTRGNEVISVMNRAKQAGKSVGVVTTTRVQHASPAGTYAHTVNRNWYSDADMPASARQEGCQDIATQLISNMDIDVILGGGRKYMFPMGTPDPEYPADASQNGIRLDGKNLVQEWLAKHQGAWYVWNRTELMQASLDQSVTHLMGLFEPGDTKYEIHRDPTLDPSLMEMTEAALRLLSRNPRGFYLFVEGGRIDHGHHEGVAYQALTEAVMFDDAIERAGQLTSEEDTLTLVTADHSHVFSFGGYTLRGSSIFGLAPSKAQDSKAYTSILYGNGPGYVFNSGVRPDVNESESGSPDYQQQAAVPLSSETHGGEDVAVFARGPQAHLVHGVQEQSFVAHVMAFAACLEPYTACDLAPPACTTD
Experimental: (§1) Human intestinal AP was obtained from Aalto Scientific, Ltd. Vista, Calif. […] L-Phenylalanine was obtained from Aldrich Chemical Company, Milwaukee, Wis. Human bone AP was isolated from human osteosarcoma-derived cell line, Saos-2 (Catalog No. HTB 85, The American Type Culture Collection, 12301 Parklawn Drive, Rockville, Md.) by butanol extraction as described by J. R. Farley et al., (1989) Clin Chem. 35, 223-229.
(§2) AP activity was determined with VP Bichromatic Analyzer (Abbott Laboratories) by monitoring the appearance of the yellow product, p-nitrophenol, produced as a result of the enzyme catalyzed hydrolysis of the colorless substrate, p-nitrophenylphosphate. The stock preparations of E. coli and human AP were diluted to 0.3-1.0 U/ml with 0.1M Tris buffer, pH 8.0, containing 1 mM magnesium chloride, 0.1 mM zinc chloride and 5 mg/ml bovine serum albumin. […] The diluted enzyme solutions were prepared fresh just before the start of the experiments. The final assay conditions for the human and E. coli AP were as follows:
(§3) Human AP Isoenzymes: p-Nitrophenylphosphate (2.2 mmol/liter); Diethanolamine (500 mmol/liter); Magnesium chloride (1 mmol/liter); Zinc chloride (0.1 mmol/liter). The reaction pH was 10.2 at a reaction temperature of 37° C. and volume fraction (sample/total) of 0.033 (1:30).
(§4) The diluted enzymes and inhibitors at appropriate concentrations (as shown in the Figures) were hand pipetted into numbered cuvettes in the multicuvette assembly of the VP Bichromatic Analyzer. Once the assay was started, the analyzer dispensed an appropriate amount of the buffered solution of p-nitrophenylphosphate containing magnesium and zinc chlorides into each cuvette. The multicuvette assembly rotated and allowed measurement of absorbance changes at every two minutes intervals. A 415 nm-450 nm filter was used to assay AP activity. All enzyme activity measurements were done at least in duplicate and the average value was used in the data analyses.
(§5) The I50 value for APl-3 is similarly calculated from its dose response curve.

[3] = system: E. coli AP; experiment: Inhibition of (altered) E. coli AP (p-nitrophenylphosphate hydrolysis); format: biochemical; details: FIG. 7, at the concentration inhibiting human isoenzymes, high concentrations
Experimental: E. coli AP (APKJ3 and APKJ4) were obtained according to the methods disclosed in U.S. patent Ser. No. 08/031,165 and its CIP. APKJ4 is an E. coli AP in which the lysine at its position 177 has been replaced with cysteine.
as §2
E. coli AP: P-Nitrophenylphosphate (1 mmol/liter); Tris-chloride (100 mmol/liter); Magnesium chloride (1 mmol/liter); and Zinc chloride (0.1 mmol/liter). The reaction pH was 8.0 at a reaction temperature of 37° C. and volume fraction (sample/total) of 0.033 (1:30).
as §4

[4] = system: human AP; experiment: Selectivity for human AP versus E. coli AP; format: biochemical; details: FIG. 7
Experimental: as §2, §3
E. coli AP: P-Nitrophenylphosphate (1 mmol/liter); Tris-chloride (100 mmol/liter); Magnesium chloride (1 mmol/liter); and Zinc chloride (0.1 mmol/liter). […]
The diluted enzymes and inhibitors at appropriate concentrations (as shown in the Figures) were hand pipetted into numbered cuvettes in the multicuvette assembly of the VP Bichromatic Analyzer. […] The multicuvette assembly rotated and allowed measurement of absorbance changes at every two minutes intervals. […]

[5] = target: T3, human bone AP (Homo sapiens, UniProt P05186); experiment: Inhibition of human bone AP isoenzyme (p-nitrophenylphosphate hydrolysis); format: biochemical; details: for order of potency as inhibitors of bone AP: FIG. 4; for IC50: read-out: [I]50 Bone AP: concentration of inhibitor that gives 50% inhibition of enzyme activity; for times more active than levamisole, bone isoenzymes: ratio to levamisole
T3 construct: Human bone AP was isolated from human osteosarcoma-derived cell line, Saos-2; host or cells: Saos-2 (human osteosarcoma-derived cell line, ATCC), butanol extraction
T3 sequence (P05186 18-502 limits assumed): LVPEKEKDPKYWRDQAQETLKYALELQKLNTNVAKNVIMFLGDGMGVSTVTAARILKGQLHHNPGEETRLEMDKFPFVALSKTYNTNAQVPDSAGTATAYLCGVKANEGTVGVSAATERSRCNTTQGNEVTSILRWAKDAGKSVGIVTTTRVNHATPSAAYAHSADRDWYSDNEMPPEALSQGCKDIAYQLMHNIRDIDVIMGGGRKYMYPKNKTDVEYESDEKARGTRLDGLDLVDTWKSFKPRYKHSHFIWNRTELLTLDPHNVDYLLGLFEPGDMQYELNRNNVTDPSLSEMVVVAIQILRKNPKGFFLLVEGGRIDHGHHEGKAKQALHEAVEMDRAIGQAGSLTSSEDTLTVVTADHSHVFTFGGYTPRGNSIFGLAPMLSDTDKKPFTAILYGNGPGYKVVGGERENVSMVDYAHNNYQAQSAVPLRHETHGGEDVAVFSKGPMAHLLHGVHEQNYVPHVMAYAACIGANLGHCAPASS
Experimental: as §1, §2, §3, §4, §5

[6] = target: T4, human placental AP (Homo sapiens, UniProt P05187); experiment: Inhibition of human placental AP isoenzyme (p-nitrophenylphosphate hydrolysis); format: biochemical; details: for order of effectiveness, placental isoenzymes / effectiveness against placental isoenzymes: FIG. 5; for inhibition of the placental isoenzymes: FIG. 7, at the concentration compared with E. coli AP; for times more potent than L-phenylalanine, placental isoenzymes: ratio to L-phenylalanine; for times more potent than levamisole, placental isoenzymes: ratio to levamisole
T4 construct: purchased Sigma Chemical Co., St. Louis, Mo
Experimental: as §1, §2, §3, §4, §5

[7] = system: AP; details: cited from earlier work
[8] = system: tissue-nonspecific AP; details: background art; cited from earlier work
[9] = system: placental and intestinal isoenzymes; details: background art; cited from earlier work
[10] = target: T1, calf intestinal AP; details: used in an immunoassay; cited from earlier work
[11] = pH 10.2, 37° C., p-nitrophenylphosphate 2.2 mmol/liter, from dose response curves, read-out: [I]50 Intestinal AP: concentration of inhibitor that gives 50% inhibition of enzyme activity
[12] = pH 10.2, 37° C., p-nitrophenylphosphate 2.2 mmol/liter, from dose response curves
[13] = pH 10.2, 37° C., p-nitrophenylphosphate 2.2 mmol/liter, from dose response curves, read-out: [I]50 Placental AP: concentration of inhibitor that gives 50% inhibition of enzyme activity

T4 sequence (P05187 23-506 limits assumed): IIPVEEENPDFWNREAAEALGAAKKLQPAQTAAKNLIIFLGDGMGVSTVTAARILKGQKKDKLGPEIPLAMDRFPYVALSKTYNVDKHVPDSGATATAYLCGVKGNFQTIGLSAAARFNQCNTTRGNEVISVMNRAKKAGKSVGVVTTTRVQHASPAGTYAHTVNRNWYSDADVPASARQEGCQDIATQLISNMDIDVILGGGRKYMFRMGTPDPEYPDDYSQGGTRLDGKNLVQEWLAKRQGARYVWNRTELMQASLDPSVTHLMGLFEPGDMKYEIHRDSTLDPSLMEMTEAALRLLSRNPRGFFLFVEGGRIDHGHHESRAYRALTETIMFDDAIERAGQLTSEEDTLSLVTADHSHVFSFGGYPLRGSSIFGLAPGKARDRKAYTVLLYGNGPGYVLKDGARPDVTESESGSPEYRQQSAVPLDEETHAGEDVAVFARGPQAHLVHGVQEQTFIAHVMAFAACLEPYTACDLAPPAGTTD
T1 sequence (P19111 20-506): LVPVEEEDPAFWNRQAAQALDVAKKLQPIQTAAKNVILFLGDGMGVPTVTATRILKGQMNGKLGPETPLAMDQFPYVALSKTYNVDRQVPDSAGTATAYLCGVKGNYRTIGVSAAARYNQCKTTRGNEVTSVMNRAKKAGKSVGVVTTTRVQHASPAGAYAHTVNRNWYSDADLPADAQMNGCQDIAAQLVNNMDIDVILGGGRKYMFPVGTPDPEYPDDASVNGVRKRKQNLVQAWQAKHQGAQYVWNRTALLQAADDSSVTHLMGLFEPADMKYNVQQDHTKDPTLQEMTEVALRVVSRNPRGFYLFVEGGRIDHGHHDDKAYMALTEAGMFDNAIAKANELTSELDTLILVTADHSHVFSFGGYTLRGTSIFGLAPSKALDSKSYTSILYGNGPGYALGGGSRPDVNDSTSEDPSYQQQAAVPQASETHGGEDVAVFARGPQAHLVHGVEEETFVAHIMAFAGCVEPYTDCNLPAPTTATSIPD

SMILES: c1ccc(Oc2ccc(C3CN4CCSC4=N3)cc2)cc1 (racemic) [API-1, (dl)-2,3,5,6-tetrahydro-6-(4-phenoxyphenyl)-imidazo[2,1-b]-thiazole]
inhibition of calf intestinal AP versus E. coli AP [1]: inhibited calf intestinal AP more than E. coli AP
inhibition of calf intestinal AP versus L-phenylalanine and levamisole [1]: more efficient than L-phenylalanine and levamisole at inhibiting calf intestinal AP
inhibition of calf intestinal AP versus human intestinal AP ([1]; listed as APl-1): more effective in inhibiting human intestinal AP than calf intestinal AP; also recorded: calf intestinal AP is more resistant to inhibition
effectiveness against intestinal isoenzymes [2]: much more effective inhibitors than levamisole and L-phenylalanine
order of effectiveness, intestinal isoenzymes [2]: APl-2>APl-1>L-phenylalanine>levamisole
inhibition of the intestinal isoenzymes [2]: 50-60%
IC50 [2, 11]: 1 mM
times as potent/effective as L-phenylalanine, intestinal isoenzymes [2]: 5 times
times as potent/effective as levamisole, intestinal isoenzymes [2]: 12 times
inhibition of the E. coli AP [3]: ≤ 10%
selectivity for human AP compared to levamisole [4]: much more selective inhibitors of human AP compared to levamisole
order of potency as inhibitors of bone AP [5]: APl-2>APl-1>levamisole
inhibition of bone isoenzymes ([5]; listed as APl-1): nearly complete inhibition at much lower concentrations compared to levamisole
IC50 [5, 12]: 4000 nM
times more active than levamisole, bone isoenzymes [5]: 15 times
order of effectiveness, placental isoenzymes [6]: APl-2>APl-1>levamisole>L-phenylalanine
inhibition of the placental isoenzymes [6]: 90%
IC50 [6, 13]: 160 µM
times more potent than L-phenylalanine, placental isoenzymes [6]: 19 times
times more potent than levamisole, placental isoenzymes [6]: 14 times

SMILES: C1=CN2CC(c3ccc(Oc4ccccc4)cc3)N=C2S1 (racemic) [API-2, (dl)-5,6-dihydro-6-(4-phenoxyphenyl)-imidazo-[1,2-b]-thiazole]
inhibition of calf intestinal AP versus E. coli AP [1]: inhibited calf intestinal AP more than E. coli AP
inhibition of calf intestinal AP versus L-phenylalanine and levamisole [1]: more efficient than L-phenylalanine and levamisole at inhibiting calf intestinal AP
inhibition of calf intestinal AP versus human intestinal AP ([1]; listed as APl-2): more effective in inhibiting human intestinal AP than calf intestinal AP; also recorded: calf intestinal AP is more resistant to inhibition
effectiveness against intestinal isoenzymes [2]: much more effective inhibitors than levamisole and L-phenylalanine
order of effectiveness, intestinal isoenzymes [2]: APl-2>APl-1>L-phenylalanine>levamisole
inhibition of the intestinal isoenzymes [2]: 50-60%
IC50 [2, 11]: 0.2 mM
times as effective as APl-1, intestinal isoenzymes ([2]; ratio to APl-1): 5 times
times as potent/effective as L-phenylalanine, intestinal isoenzymes [2]: 23 times
times as potent/effective as levamisole, intestinal isoenzymes [2]: 60 times
inhibition of the E. coli AP [3]: ≤ 10%
selectivity for human AP compared to levamisole [4]: much more selective inhibitors of human AP compared to levamisole
order of potency as inhibitors of bone AP [5]: APl-2>APl-1>levamisole
inhibition of bone isoenzymes ([5]; listed as APl-2): nearly complete inhibition at much lower concentrations compared to levamisole
IC50 [5, 12]: 600 nM
times more active than levamisole, bone isoenzymes [5]: 100 times
order of effectiveness, placental isoenzymes [6]: APl-2>APl-1>levamisole>L-phenylalanine
inhibition of the placental isoenzymes [6]: 90%
IC50 [6, 13]: 26 µM
times more potent than compound APl-1, placental isoenzymes ([6]; ratio to APl-1): about 6 times
times more potent than L-phenylalanine, placental isoenzymes [6]: 115 times
times more potent than levamisole, placental isoenzymes [6]: 85 times

IC50 [6, 13]: 500 µM
SMILES: c1ccc(-c2ccc(C3CN4CCSC4=N3)cc2)cc1 (racemic) [API-3, (dl)-2,3,5,6-tetrahydro-6-(biphenyl)-imidazo-[1,2-b]-thiazole]

SMILES: c1ccc([C@@H]2CN3CCSC3=N2)cc1 [D- counterpart]
AP inhibition by D- counterpart of levamisole [7]: not an AP inhibitor

SMILES: N[C@@H](Cc1ccccc1)C(=O)O [L--Phe, L-phenylalanine, reference compound]
sensitivity of tissue-nonspecific AP to inhibitor [8]: not sensitive; also recorded: does not inhibit tissue-nonspecific AP isoenzymes
IC50 [2]: 4.5 mM
order of effectiveness, intestinal isoenzymes [2]: APl-2>APl-1>L-phenylalanine>levamisole
inhibition of bone isoenzymes [5]: does not inhibit bone isoenzymes; also recorded: activation of the bone isoenzymes
[I]50 Bone AP: concentration of inhibitor that gives 50% inhibition of enzyme activity [5, 12]: Activation
activation at 10000 µM ([5]; read-out: increase in activity of bone AP): ≤ 40%
IC50 [6]: 3000 µM
effectiveness against placental isoenzymes [6]: a lot less effective compared to compounds APl-1 and APl-2
order of effectiveness, placental isoenzymes [6]: APl-2>APl-1>levamisole>L-phenylalanine

SMILES: c1ccc([C@H]2CN3CCSC3=N2)cc1 [Levamisole, (L-)2,3,5,6-tetrahydro-6-phenylimidazo[1,2-b]thiazole, reference compound]
sensitivity of tissue-nonspecific AP to inhibitor [8]: strongly inhibited
order of effectiveness, intestinal isoenzymes [2]: APl-2>APl-1>L-phenylalanine>levamisole
inhibition of the intestinal isoenzymes [2]: 48%
IC50 [2, 11]: 12 mM
inhibition of the E. coli AP [3]: 65%
effectiveness against placental isoenzymes [6]: a lot less effective compared to compounds APl-1 and APl-2
order of effectiveness, placental isoenzymes [6]: APl-2>APl-1>levamisole>L-phenylalanine
inhibition of the placental isoenzymes [6]: 80%
IC50 [6, 13]: 2200 µM
inhibition of placental and intestinal isoenzymes [9]: only at much higher concentrations
effect on specific immuno-signal generated by calf intestinal AP [10]: does not interfere with the specific immuno-signal generated by calf intestinal AP
